“Also recorded” adds a separate entry of the source.
What was measured:
[1] = test system: mouse model of Rett syndrome; conditions: chronic administration, same paradigm; cited from earlier work
ASD mouse models = conditions: cited from earlier work
Dyrk1a cHets [2] = assay: Chronic (1-3)IGF-1 treatment from P14: behavioral battery; assay type: in vivo, mouse
Text: To determine whether chronic (1-3)IGF-1 administration ameliorates ASD-relevant behaviors, we conducted a behavioral battery to assay sociability and repetitive behaviors as well as locomotion, anxiety-like behavior, acoustic startle, and sensorimotor gating. […] Taken together, (1-3)IGF-1 treatment ameliorates morphological, neuronal, and behavioral deficits caused by cortical Dyrk1a mutations.
(§1) (1-3)IGF-1 was acquired from VWR/Bachem (catalog #H-2468.1000) and dissolved in saline with 0.01% BSA fresh every day. Intraperitoneal injections of 10 mg kg′ (1-3)IGF-1 or vehicle were delivered daily at 8 a.m. starting on P14 and ending on P85. […] The S6K1 inhibitor PF-4708671 was acquired from Medkoo Biosciences (#406432) dissolved in 10% DMSO, 10% tween 80 and 80% water. (1-3)IGF-1 (10 mg kg′) and PF-4708671 (50 mg kg^−1) or vehicle were injected subcutaneously into pups from P0 to P7. Rapamycin was acquired from LC laboratories (R-5000) and dissolved in 4% ethanol, 5% tween-80, and 5% PEG400 in PBS. (1-3)IGF-1 (10 mg kg′) and Rapamycin (1 mg kg′) or vehicle were injected subcutaneously into pups from P0 to P7. SB216763 was acquired from TOCRIS (#1616) and dissolved in 5% DMSO and 0.9% saline in dH20. SB216763 (0.5 mg kg′) was injected subcutaneously into pups from P0 to P7.
3 chamber social approach: Briefly, after at least 2 weeks housing under reversed light cycle, each mouse was habituated in the three-chamber box for 5 minutes before a stimulus mouse was placed into a tube in the “social” chamber. The stimulus mice used were young adult male mice. The time spent in each chamber (“mouse+tube”, “empty tube”, “center”) was hand-scored for sniffing time using Boris.
Marble burying: Male mice were placed individually in a cage with 5 cm of ¼″ corncob bedding and 20 black marbles (14.3 mm in diameter) arranged in a 4×5 matrix and left undisturbed for 30 min. The number of marbles that were at least two-thirds buried at the end of the trial were counted. […]

Dyrk1a cHets [3] = assay: Chronic (1-3)IGF-1 treatment from P14: cortical and neuronal morphology; assay type: in vivo, mouse
Experimental: To test whether administration of the active peptide (1-3)IGF-1 restores cortical growth in cHets, we utilized the following paradigm: controls and cHets were treated daily with either (1-3)IGF-1 or vehicle beginning at P14. A behavioral battery began at P56 and daily injections continued until the mice were sacrificed for downstream analysis (FIG. 17A). […] As the impact of loss-of-function Dyrk1a mutations on spine density has not been investigated in vivo, we measured spine density on primary neurites of layer V pyramidal neurons in the mPFC. […] Together, these findings indicate that chronic (1-3)IGF-1 treatment beginning at P14 rescues microcephaly and neuronal undergrowth in Dyrk1a cHets.
as §1
Adult animals were perfused with 4% PFA and pups underwent rapid decapitation and dissection. After 18 hours post-fixation in 4% PFA, brains were incubated in a 20% sucrose/PBS solution at 4° C. for 2-3 days and embedded in Tissue-Tek OCT compound (Sakura). 40 μm sections were collected on Superfrost/Plus slides and stained. DAPI was used for nuclear labeling (Invitrogen, catalog #D3571). Slides were mounted with Vectashield HardSet and images were obtained with an Olympus VS120 microscope and processed using the VS-DESKTOP software (Olympus) or ImageJ (NIH). Ventricle size was analyzed by drawing an ROI around the entire ventricle in 2-3 plane-matched sections per animal.
Following rapid decapitation, brains were removed and processed using the FD Rapid Golgistain™ kit (FD Neurotechnologies, Columbia MD) following the manufacturer's instructions. A Leica vibrating microtome was used to cut 100 μm coronal sections in 6% sucrose in PBS. The sections were then mounted on gelatin-coated slides and stained using the FD Rapid Golgistain™ kit. Individual neurons were imaged using a Leica DM5500B 20× objective and reconstructed using Neuromantic software. After reconstruction, Sholl analysis was performed in ImageJ using the Simple Neurite Tracer. Primary neurites were selected for spine density analysis where the number of spines was counted and divided by the length of the neurite fragment. Soma size was measured using the ROI freehand tool on imageJ (NIH).

[4] = 3-chamber social approach, cHets

(1-3)IGF-1: a tripeptide cleaved from the N-terminus of IGF-1; acquired from VWR/Bachem, CAS No. 32302-76-4 (GPE; Insulin-like growth factor 1; UniProt P05019 49-51, looked up, fragment)
lifespan, motor coordination, cardiac function, microcephaly, spine density, and synaptic function [1]: significantly improved | brain penetrance (ASD mouse models; ASD mouse models, dosage 10 μg/g (10 mg kg)): brain penetrance | signaling downstream of IGF-1 (ASD mouse models; within 3 hours post-injection): increased signaling downstream of IGF-1 | preference index (Dyrk1a cHets [2]; [4]): restored | social interaction time (hand-scored) (Dyrk1a cHets [2]; [4]): increased | social deficit of cHets (time interacting with stimulus mouse, preference index) (Dyrk1a cHets [2]; 3-chamber social approach, cHets, daily from P14): restored this social deficit in cHets | sociability of controls (Dyrk1a cHets [2]; 3-chamber social approach, controls): did not impact controls | preference for stimulus mouse vs inanimate object within group, 3-chamber social approach (Dyrk1a cHets [2]; all genotype X treatment groups): significant preference for interaction with a stimulus mouse; also recorded: significant preference for social interaction | number of marbles buried by cHets (Dyrk1a cHets [2]; marble burying, cHets): no effect; also recorded: subtle modification of the phenotype | qualitative interaction with the marbles (Dyrk1a cHets [2]; marble burying, cHets): qualitatively interaction with the marbles increased in cHets | neuronal complexity of layer V pyramidal neurons in the mPFC (Sholl analysis) (Dyrk1a cHets [3]; daily from P14, adult cHets): restored the neuronal complexity; also recorded: rescued | soma size of layer V pyramidal neurons (Dyrk1a cHets [3]; daily from P14, adult cHets): restored the significantly smaller neuronal soma size; also recorded: rescued | ventricle area in cHets (Dyrk1a cHets [3]; daily from P14, adult cHets): normalized; also recorded: rescued | spine density of layer V pyramidal neurons in the mPFC (Dyrk1a cHets [3]; daily from P14, adult cHets, primary neurites): significantly increased; also recorded: partially restored | cortex mass (cortical growth) of cHets (Dyrk1a cHets [3]; daily i.p. 10 mg kg from P14, adult cHets): rescued cortical growth in cHets; also recorded: restored | cortex mass (cortical growth) of controls (Dyrk1a cHets [3]; daily i.p. 10 mg kg from P14, controls): no effect on controls

— US20240148835A1, “TREATING DISORDERS ASSOCIATED WITH DYRK1A DYSFUNCTION” (UNIVERSITY OF FLORIDA RESEARCH FOUNDATION, INCORPORATED, priority 2021, published 2024)
